From publication PMC12677653, “Inhibition of Tumor Lipogenesis and Growth by Peptide‐Based Targeting of SREBP Activation” (Advanced Science, 2025)

Key:
[1] = system: Insig1 S207/Insig2 S151 phosphorylation; assay: Immunoblot of Insig1 S207/Insig2 S151 phosphorylation, Huh7; format: cell-based, human; conditions: Huh7 cells, peptide 7.5 or 15 µM 1 h before IGF1 100 ng/mL
Experimental: Figure 1 The Insig1/2 loop 1 peptide binds to S90‐phosphorylated PCK1 and blocks PCK1‐mediated SREBP activation and tumor cell proliferation. Immunoblotting analyses were performed using the indicated antibodies; representative results from three independent experiments are shown (IP, immunoprecipitation; WB, western blot). a) Huh7 cells expressing various Insig1 (top) or Insig2 (bottom) truncation mutants were treated with or without IGF1 (100 ng mL^−1) for 1 h. b,c) Biolayer interferometry assays (Sartorius Octet) were employed to measure the binding affinity of Insig1/2 loop 1 peptide to GST‐PCK1 or GST‐PCK1 pS90 proteins. […] Statistical significance was determined by one‐way analysis of variance (ANOVA). g) Following pretreatment with Insig1/2 loop 1 peptide (15 µM) and IGF1 stimulation (100 ng mL^−1, 8 h), Huh7 cells were subjected to immunofluorescence analysis (scale bar: 10 µm). h) Quantitative PCR analysis of SREBP1 target gene GPAM in Huh7 cells pretreated with Insig1/2 loop 1 peptide (15 µM) and stimulated with IGF1 (100 ng mL^−1) for 10 h. […] Statistical significance was determined by one‐way analysis of variance (ANOVA). i) Quantitative PCR analysis of SREBP1 target gene FASN in Huh7 cells pretreated with Insig1/2 loop 1 peptide (15 µM) and stimulated with IGF1 (100 ng mL^−1) for 10 h. […]

[2] = system: HCT116 human colon cancer cells; assay: Cell proliferation / cell death, HCT116; format: cell-based; conditions: concentration gradient of peptide, OD measurement (Figure S1i)
Experimental: Cells were seeded in 96‐well plates at a density of 5000 cells per well in 100 µL complete growth medium. Following a 24‐hour incubation period (37 °C, 5% CO2) to permit cell adherence, the culture medium was replaced with fresh low serum contained complete medium containing either Insig1/2 loop1 peptide (0–100 µM concentration range) or PBS. Cells were maintained under these conditions for 72 hours. After treatment, the culture medium was carefully aspirated, and cells were washed twice with 200 µL phosphate‐buffered saline (PBS, pH 7.4). Fixed was performed using 4% paraformaldehyde (100 µL/well) for 15 min at room temperature, followed by three PBS washes (200 µL/well) to remove residual fixative. 0.1% (w/v) crystal violet staining solution was prepared by dissolving crystal violet powder in 10% ethanol, followed by filtration through a 0.22 µm membrane. Each well received 80 µL of staining solution and was incubated for 15 min at room temperature, protected from light. […] Plates were agitated at 200 rpm for 10 min to ensure complete dissolution before measuring absorbance at 582 nm using a microplate reader. […]
i-k) (i) HCT116, (j) Huh7, and (k) Hep3B cells were exposed to a concentration gradient of Insig1/2 loop1 peptide, and cell proliferation was quantified by optical density (OD) measurements.

Question: How did the “Insig1 S207/Insig2 S151 phosphorylation” value [1] turn out when “RKKRRQRRRLYPCIDSHLGEPHKFKRE [Insig1/2 loop 1 peptide]” was run?
Answer: markedly inhibited

Question: And the cell death [2]?
Answer: induced cell death
